{
  "source": "patent US20080306080A1",
  "about": "“NEUTROPHILIA INHIBITOR” (Nissan Chemical Industries, Ltd., priority 2003, published 2008)",
  "key": {"[1]": {"test_system": "neutrophilia in the rat airway", "test": "Effect on neutrophilia in the rat airway (LPS inhalation, neutrophil count in bronchoalveolar washings)", "type": "in vivo, Wister rats", "conditions": "oral 1 mg/kg, 3 mg/kg and 10 mg/kg, 30 min before LPS inhalation; washings about 5 hours after inhalation", "procedure": "Male Wister rats weighing from 100 to 200 g were put in a clear plastic inhalation box for small animals (W30×H30×D30 cm), and 30 mL of a lipopolysaccharide solution (LPS E. coli 0.3 mg/mL saline) atomized to an average particle size of 2.0-6.0 μm was administered by inhalation from an ultrasonic nebulizer (TUR-3200, NIHON KOHDEN) for 30 minutes.\nThe lipopolisaccharide inhalation was preceded, 30 minutes in advance, by oral administration of Compound A suspended in 0.5% methylcellulose (MC) at doses of 1 mg/4 mL/kg, 3 mg/4 mL/kg and 10 mg/4 mL/kg, or by oral administration of 0.5% MC at a dose of 2 mL/kg to a solvent group. […]\nAbout 5 hours after the lipopolisaccharide inhalation, bronchoalveolar washings were collected. […] The total number of leukocytes in the suspension was counted with a multichannel blood cell counter and designated as the total leukocyte count.\nFurther, after the cell suspension was adjusted to a total leukocyte count of 1×10^6 cells/mL, 100 μL of the suspension was centrifuged at room temperature at 400 rpm for 4 minutes in a cytocentrifuge (Thermo Shandon) and made into smears. The smears were stained with Diff-Quick (International Reagents Co., Ltd.), and monocytes, eosinophils and neutrophils were counted under an inverted microscope (×400) to about 500 cells. […]"}, "[2]": {"test_system": "airway neutrophilia induced by exposure to tobacco smoke", "test": "Guinea pig respiratory dysfunction model with airway neutrophilia induced by exposure to tobacco smoke", "type": "in vivo, Hartley guinea pigs", "conditions": "oral 10 mg/kg before each tobacco smoke exposure, 3 weeks, measured the day after", "procedure": "Hartley guinea pigs weighing from 350 to 450 g were exposed to cigarette smoke for an hour per day, five days per week, for 3 weeks, by using a tobacco smoke exposer and an exposure chamber (Flow-pasttype nose-only inhalation chamber, Muenster).\nThe tobacco smoke exposure was preceded, 15-45 minutes in advance, by oral administration of the compound suspended in 0.5% methylcellulose (MC) at a dose of 10 mg/2 mL/kg or by oral administration of 0.5% MC at a dose of 2 mL/kg to a solvent group. To the non-treatment group, 0.5% MC was orally administered at a dose of 2 mL/kg, 15-45 minutes before air exposure. From 4 to 6 […] were carried out for each group. The airway resistances and neutrophil counts were measured the day after three weeks of the tobacco smoke exposure. The airway resistances were measured by double chamber plethysmography with a respiratory function tester (Puloms-1, M.I.P.S.) during wakefulness. The neutrophil counts were measured in the same manner as in Test Example 1. The effect of Compound A was evaluated by calculating the suppression ratio (%) in accordance with the following formula.\nSuppression ratio=((measured value for the control group−measured value for the normal value)−(measured value for the Compound A group−measured value for the normal group))×100/(measured value for the control group−measured value for the normal value)"}},
  "data": [
    {"smiles": "Cl.O=c1[nH]nc(OCCCc2ccc(Cl)cc2)c(NCc2cccnc2)c1Br", "note": "[Compound A, 4-bromo-6-[3-(4-chlorophenyl)propoxy]-5-(3-pyridylmethylamino)-3(2H)-pyridazinone hydrochloride]", "values": [
      {"measurement": "antineutrophilia effect in the rat airways (neutrophil counts in bronchoalveolar washings)", "setting": "[1]", "value": "had antineutrophilia effect"},
      {"measurement": "suppression ratio of increase in airway resistance", "setting": "[2]; double chamber plethysmography", "value": 100, "unit": "%"},
      {"measurement": "suppression ratio of neutrophilia (neutrophil count)", "setting": "[2]", "value": 73, "unit": "%"}
    ]}
  ]
}
